The subject of one assay is renal hypertensive rats. The experiment in a line: blood pressure lowering in renal hypertensive rats (2-kidney, 1-clip Goldblatt model). The format is in vivo. As to conditions: renal hypertensive rat. As to the method:
Finally, the compounds of Formula I were tested in vivo for blood pressure lowering effects in renal hypertensive rats (2-kidney, 1-clip Goldblatt model) according to the method described by S. Sen, et al, in Hypertension 1979;1:427-34 and in Clin. Soc. 1979;57:53-62.
Illustrative of the in vivo antihypertensive activity for compounds of Formula I or Ia is the data for Example 1a. This compound lowers blood pressure by ≥50 mm Hg and is efficacious for more than 24 hours with a single oral dose of 100 mg/kg in the renal hypertensive rat. Furthermore Example 73 lowers blood pressure by ≥30 mm Hg and is efficacious for more than 24 hours with a single oral dose of 30 mg/kg in the renal hypertensive rat.

The next assay has as its target T1, AT1 receptor (Rattus norvegicus, UniProt P25095).
T1 construct: rat liver membranes; from tissue; host or cells: rat liver membranes
T1 sequence (P25095 1-359): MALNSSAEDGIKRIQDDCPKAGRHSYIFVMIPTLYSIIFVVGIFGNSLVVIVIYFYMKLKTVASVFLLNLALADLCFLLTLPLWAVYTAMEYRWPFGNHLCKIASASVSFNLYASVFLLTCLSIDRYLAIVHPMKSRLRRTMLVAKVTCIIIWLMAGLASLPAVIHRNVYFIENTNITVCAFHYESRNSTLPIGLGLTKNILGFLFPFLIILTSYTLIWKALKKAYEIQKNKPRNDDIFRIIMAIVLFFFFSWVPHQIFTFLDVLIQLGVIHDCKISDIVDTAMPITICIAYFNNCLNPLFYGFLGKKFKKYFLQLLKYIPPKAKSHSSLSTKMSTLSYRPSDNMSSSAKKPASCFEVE
The experiment in a line: [^3 H]angiotensin II binding to rat liver membranes (AT1 test). The settings on record: inhibition of [^3 H]angiotensin II binding. An outline of the steps:
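Inhibition of [^3 H]angiotensin II binding to rat liver membranes, run by the Dudley et al. 1990 method.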

Experimental findings from US5436260A, “Angiotensin II receptor antagonists” (Warner-Lambert Company, priority 1994, dated 1995) are described below.

Counter-ions that a name gives are not always drawn.

For `CCCCc1ncc(/C=C2\C(=O)NC(=O)N2CCCC)n1Cc1ccc(C(=O)O)cc1` [Example 1a, (E)-4-[[2-Butyl-5-[(3-butyl-2,5-dioxo-4-imidazolidinylidene)methyl]-1H-imidazol-1-yl]methyl]benzoic acid], the “lowers blood pressure by” value in the assay on renal hypertensive rats (single oral dose of 100 mg/kg) was at least 50 mm Hg.
`CCCCc1ncc(/C=C2/C(=O)N(CCCC)C(=O)N2CCCC)n1Cc1ccc(C(=O)O)cc1` [Example 73, Z-4-[[2-butyl-5-[(1,3-dibutyl-2,5-dioxo-4-imidazolidinylidene)methyl]-1H-imidazol-1-yl]methyl]benzoic acid] gave an IC50 on AT1 receptor of 1.3 nM. Moreover, in the assay with renal hypertensive rats (single oral dose of 30 mg/kg), the “efficacious for (duration)” value is “more than 24 hours” and the “lowers blood pressure by” value is on record as at least 30 mm Hg.
The molecule `CCCCc1ncc(/C=C2\C(=O)NC(=O)N2C)n1Cc1ccc(-c2ccccc2-c2nnn[nH]2)cc1` [Example 94, E-5-[[2-butyl-3-[[2'-(1H-tetrazol-5-yl)[1,1'-biphenyl]-4-yl]methyl]-3H-imidazol-4-yl]methylene]1-methyl-2,4-imidazolidinedione] had a half-inhibitory concentration (IC50) at AT1 receptor of 8.57 nM.
Still for that read-out and setting: to `CCCCc1ncc(CC2C(=O)NC(=O)N2CCCC)n1Cc1ccc(-c2ccccc2-c2nnn[nH]2)cc1` (stereo not shown) [Example 95, 1-Butyl-5-[[2-butyl-3-[[2'-(1H-tetrazol-5-yl)[1,1'-biphenyl]-4yl]methyl]-3H-imidazol-4-yl]methyl]-2,4-imidazolidinedione] belongs 2.67 nM; to `CCCCc1ncc(/C=C2/C(=O)NC(=O)N2CCCC)n1Cc1ccc(-c2ccccc2C(=O)OC)cc1` [Example 96a], 15.9 nM.
Consider `CCCCc1ncc(/C=C2\C(=O)NC(=O)N2CCCC)n1Cc1ccc(-c2ccccc2C(=O)OC)cc1` [Example 96b, Methyl E 4'-[[2-butyl-5-[(3-butyl-2,5-dioxo-4-imidazolidinylidene)methyl]-1H-imidazol-1-yl]methyl][1,1'-biphenyl]-2-carboxylate], for which the IC50 on AT1 receptor came to 9.86 nM.
The same measure, in the same setting: to `CCCCc1nc(Br)c(/C=C2/C(=O)NC(=O)N2CCCC)n1Cc1ccc(-c2ccccc2C(=O)OC)cc1` [Example 97a, Methyl Z-4'-[[4-bromo-2-butyl-5-[(3-butyl-2,5-dioxo-4-imidazolidinylidene)methyl]-1H-imidazol-1-yl]methyl][1,1'-biphenyl]-2-carboxylate] belongs 700 nM.
In turn, `CCCCc1nc(Br)c(/C=C2\C(=O)NC(=O)N2CCCC)n1Cc1ccc(-c2ccccc2C(=O)OC)cc1` [Example 97b, Methyl E-4'-[[4-bromo-2-butyl-5-[(3-butyl-2,5-dioxo-4-imidazolidinylidene)methyl]-1H-imidazol-1-yl]methyl][1,1'-biphenyl]-2-carboxylate] showed an IC50 at AT1 receptor of 500 nM.
Molecule `CCCCc1ncc(/C=C(/C(=O)O)N(CCCC)C(=O)NCOC)n1Cc1ccc(C(=O)OC)cc1` [Example 98] yielded a 50% inhibitory concentration (IC50) on AT1 receptor of 377 nM.
The same measure, in the same setting: to `CCCCc1ncc(/C=C2/C(=O)N(CCCC)C(=O)N2Cc2nccn2Cc2ccccc2)n1Cc1ccc(C(=O)OC)cc1` [Example 99] belongs 135 nM; to `CCCCc1ncc(/C=C2/C(=O)N(CO)C(=O)N2Cc2csc(C)n2)n1Cc1ccc(C(=O)OC)cc1` [Example 101, Methyl Z-4-[[2-butyl-5-[[1-(hydroxymethyl)-3-[(2-methyl-4-thiazolyl)methyl]-2,5-dioxo-4-imidazolidinylidene]methyl]-1H-imidazol-1-yl]methyl]benzoatedihydrochloride], 35.7 nM; to `CCCCc1ncc(/C=C2/C(=O)N(CCCC)C(=O)N2Cc2ccc(-c3ccccc3)cc2)n1Cc1ccc(C(=O)OC)cc1` [Example 102, Methyl Z-4-[[5-[[3-[(1,1'-biphenyl)-4-ylmethyl]-1-butyl-2,5-dioxo-4-imidazolidinylidene]methyl]-2-butyl-1H-imidazol-1-yl]methyl]benzoate], over 1000 nM.
Same read-out and setting: next, `CCCCc1ncc(/C=C2/C(=O)N(CCCC)C(=O)N2CC(=O)c2cccs2)n1Cc1ccc(C(=O)OC)cc1` [Example 103, Methyl Z-4-[[2-butyl-5-[[1-butyl-2,5-dioxo-3-[2-oxo-2-(2-thienyl)ethyl]-4-imidazolidinylidene]methyl]-1H-imidazol-1-yl]methyl]benzoate monochloride]: 120 nM; `CCCCc1ncc(/C=C2/C(=O)N(CCCC)C(=O)N2CC(=O)c2ccccc2)n1Cc1ccc(C(=O)OC)cc1` [Example 104, Methyl Z-4-[[2-butyl-5-[[1-butyl-2,5-dioxo-3-(2-oxo-2-phenylethyl)-4-imidazolidinylidene]methyl]-1H-imidazol-1-yl]methyl]benzoate monohydrochloride]: over 1000 nM; `CCCCc1ncc(/C=C2/C(=O)N(Cc3cccs3)C(=O)N2Cc2cccs2)n1Cc1ccc(C(=O)O)cc1` [Example 105, Z-4-[[2-Butyl-5-[[2,5-dioxo-1,3-bis(2-thienylmethyl)-4-imidazolidinylidene]methyl]-1H-imidazol-1-yl]methyl]benzoic acid]: 1.47 nM.
On the same count and under the same terms, next, `CCCCc1ncc(/C=C2/C(=O)N(CCCC)C(=O)N2Cc2ccno2)n1Cc1ccc(C(=O)OC)cc1` [Example 106, Methyl Z-4-[[2-butyl-5-[[1-butyl-3-(5-isoxazolyl-methyl)-2,5-dioxo-4-imidazolidinylidene]methyl]-1H-imidazol-1-yl]methyl]benzoate monohydrochloride]: 10.1 nM.
On to `CCCCc1ncc(/C=C2\NC(=O)N(CCCC(F)(F)F)C2=O)n1Cc1ccc(C(=O)OC)cc1` [Example 107, Methyl Z-4-[[2-butyl-5-[[2,5-dioxo-4,4,4,-(trifluorobutyl)-4-imidazolidinylidene]methyl]-1H-imidazol-1-yl]methyl]benzoate], for which the half-inhibitory concentration (IC50) at AT1 receptor came to 1450 nM.
Same read-out and setting: next, `CCCCc1ncc(/C=C2/C(=O)N(CCCC)C(=O)N2Cc2cc(C)on2)n1Cc1ccc(C(=O)OC)cc1` [Example 108, Methyl Z-4-[[2-butyl-5-[[1-butyl-3-[(5-methyl-3-isoxazolyl)methyl]-2,5-dioxo-4-imidazolidinylidene]methyl]-1H-imidazol-1-yl]methyl]benzoate]: 8.47 nM; `CCCCc1ncc(/C=C2/C(=O)N(CC)C(=O)N2Cc2csc(C)n2)n1Cc1ccc(C(=O)OC)cc1` [Example 109, Methyl Z-4-[[2-butyl-5-[[1-ethyl-3-[(2-methyl-4-thiazolyl)methyl]-2,5-dioxo-4-imidazolidinylidene]methyl]-1H-imidazol-1-yl]methyl]benzoate dihydrochloride]: 11.1 nM.
Still for that read-out and setting: next, `CCCCc1ncc(/C=C2/C(=O)N(CCCC)C(=O)N2Cc2csc(C)n2)n1Cc1ccc(C(=O)OC)cc1Cl` [Example 110, Methyl Z-4-[[2-butyl-5-[[1-butyl-3-[(2-methyl-4-thiazolyl)methyl]-2,5-dioxo-4-imidazolidinylidene[methyl]-1H-imidazol-1-yl]methyl]-3chloro benzoatemonohydrochloride]: 2.47 nM; `CCCCc1ncc(/C=C2/C(=O)N(CCCC(F)(F)F)C(=O)N2Cc2csc(C)n2)n1Cc1ccc(C(=O)OC)cc1` [Example 111, Methyl Z-4-[[2-Butyl-5-[[3-[(2-methyl-4-thiazoyl)methyl]-2,5-dioxo-1-(4,4,4-trifluorobutyl)-4-imidazolidinylidene]methyl]-1H-imidazol-1-yl]methyl]benzoate dihydrochloride]: 70 nM; `CCCCc1ncc(/C=C2/C(=O)N(CCCC)C(=O)N2CCCC(F)(F)F)n1Cc1ccc(C(=O)OC)cc1` [Example 112, Methyl Z-4-[[2-butyl-5-[[1-butyl-2,5-dioxo-3-(4,4,4-trifluorobutyl)-4-imidazolidinylidene]methyl]-1H-imidazol-1-yl]methyl]benzoate dihydrochloride]: 6.44 nM.
Same read-out and setting: to `CCCCc1ncc(/C=C2/C(=O)N(CCCC(F)(F)F)C(=O)N2CCCC(F)(F)F)n1Cc1ccc(C(=O)OC)cc1` [Example 113, dihydrochloride] belongs 18.3 nM.

As usually defined, the IC50 is the concentration that gives 50% inhibition. Higher therefore signals lower potency.
